Reference: patent US11582989B2, “Stress management in livestock” (Charles Sturt University, priority 2013, dated 2023)
Read-outs that look alike come from different tables or passages of the source.

How the values were obtained:
[1] = tested on: C57B16/Ola male mice; assay: Novel arena test, freezing response episodes (AnyMaze); type: in vivo; conditions: potassium bromide 250 mg/L in drinking water for 7 days, vs normal drinking water
Description: Animals were placed in the centre of an open arena which was unfamiliar to them and their rate and range of movement tracked by digital recognition software. Distance, speed and time spent immobile were analysed using the AnyMaze™ software. Results were compared statistically using SPSS™.

[2] = Weight gain under mildly stressful management conditions; type: in vivo, mice; conditions: potassium bromide 250 mg/L in drinking water, 7 days, mild stress, vs control
Description: (§1) A model system was established to induce stress in rodents by repeated behavioural testing using the AnyMaze™ rodent behavioural monitoring system. […] At the end of 7 days animals were subjected to a number of behavioural tests to assess level of stress. Weight gain was also analysed in the treatment group by recording body weight over the initial 7 day period.
(§2) C57B16/Ola male mice at 5 weeks of age were purchased from MAS Client Services, Monash University, Melbourne, Australia. Animals were weighed at the start of the test period and daily for the duration of testing.
(§3) Animals were weighed 3 times during the experiment (7 days). To initiate a mildly stressful situation, animals were exposed to novel arena, parallel rod and tremor tests using the mouse AnyMaze™ system (AnyMaze™, Stoelting, U.S.A.).

[3] = Weight gain of Merino ewe lambs after mulesing and tail docking; type: in vivo
[4] = tested on: C57B16/Ola male mice; conditions: potassium bromide 250 mg/L in drinking water for 7 days
Description: as §1, §2, §3

[5] = sheep
Description: (§4) NaBr solution was administered through the cephalic vein using a 21 gauge needle over a period of 1 minute. Sheep were restrained in a seated position. Blood samples were collected at 0, 1, 5, 10, 15, 20 and 30 min and then at 1, 2, 3, 4, 6, 8, 10, 12, 24 h. Samples thereafter were collected at 12 h intervals to 240 h then at 24 h intervals to 336 h. A final sample was taken at 528 h. For each sample, the initial 2 mL of blood collected was discarded and a sterile syringe used to withdraw 5 mL of blood which was then placed into a plain separator blood tube (Vacuette: Greiner Bio-one). The cannulas were flushed with 3 mL of 5% heparinised saline after each collection. Each blood sample was left to stand for 30 min before centrifugation at 2000 g for 5 min. Serum was harvested and stored at −20° C. until analysis.
(§5) KBr solution was administered via an orogastric tube, then flushed with 500 mL water. Blood samples were collected at 0, 1, 2, 3, 4, 6, 8, 10, 12, 24 h, then at 12 h intervals to 240 h, then at 24 h intervals to 336 h. A final sample was taken at 504 h. When collecting blood samples at 1 h through to 10 h the rumen was auscultated, over the caudo-dorsal blind sack, to determine if the high salt load affected rumen motility.
Absorbance was measured with a spectrophotometer at 440 nm.

[6] = sheep, 120 mg/kg
Description: as §4, §5

[7] = cited from earlier work
[8] = horse (Raidal and Edwards, 2008); cited from earlier work
[9] = Podell and Fenner, 1993; cited from earlier work
[10] = 300 mg/kg LW oral bromide immediately prior to procedure, n=20

[Br-].[K+] [potassium bromide]
freezing response episodes in novel arena test [1]: trend was towards decreased freezing episodes
weight gain [2]: significant weight gain
weight gain compared to untreated counterparts ([3]; 300 mg/kg LW oral at time of mulesing and tail docking, over 51 days): trend towards increased weight gain

Br [bromide]
freezing response episodes in novel arena test [1]: trend towards decreased freezing response episodes
signs of ataxia [4]: no signs of ataxia
parallel rod touches ([4]; vs normal drinking water): significantly more touches
weight gain [2]: increased weight gain
t½ ([5]; IV): 16.2 days
absorption following PO administration ([5]; PO): absorbed rapidly
half-life (t½) ([5]; PO): approximately 14 days
serum Br concentration range ([5]; PO 120 mg/kg, for 14 d): 200 to 400 mg/L
adverse reactions ([6]; IV and PO groups): No adverse reactions were noted
duration of tranquilising effect post-injection ([6]; IV): 1 to 2 h
tranquilising effect (subjective observation) ([6]; IV): mild tranquilising effect
neurological effects ([6]; PO group): no discernable neurological effects
rumen motility ([6]; PO group, auscultated 1 h to 10 h): no observed alteration in rumen motility
mean weight gain between day 7 and 14 ([3]; 300 mg/kg LW oral bromide): 1.80 ± 0.30 kg
mean live weight on day 51 [3, 10]: 22.17 ± 0.86 kg
mean weight gain after 51 days [3, 10]: 8.52 ± 0.57 kg
Day 1-7 mean weight change ([3]; 300 mg/kg LW oral bromide, first seven days): -0.564 ± 1.29 kg
weight gain compared to untreated counterparts ([3]; 300 mg/kg LW oral, after 14 days): enhanced weight gain
live weight gain ([3]; over 51 days): 0.16 kg per head per day
weight gain per head per day ([3]; over the 51 days of the trial): 0.57
increase in production gain ([3]; vs control, over 51 days): 11%
t½ ([7]; dog (Trepanier and Babish, 1995)): 12 to 24 days
bioavailability ([7]; dog (Trepanier and Babish, 1995b)): 40%
estimated bioavailability [8]: 32-38%
t½ [8]: approximately 3 d
anticonvulsant range (Br concentration) [9]: 1.0 to 2.0 mg/mL
